Tests used:
SF-295 = assay: NCI-60 SRB screen; type: cell-based, human; details: Homo sapiens; SF-295; single dose 10^−5 M; read-out: Growth inhibition (%)
HOP-62 = assay: NCI-60 SRB screen; type: cell-based, human; details: Homo sapiens; HOP-62; single dose 10^−5 M; read-out: Growth inhibition (%)
COLO 205 = assay: NCI-60 SRB screen; type: cell-based, human; details: Homo sapiens; COLO 205; single dose 10^−5 M; read-out: Growth inhibition (%)
[1] = test system: panel of 60 cancer cell lines; assay: NCI-60 SRB screen, mean or range over the panel; type: cell-based, human; details: Homo sapiens; mean over the cell lines; single dose 10^−5 M; read-out: Mean growth inhibition (%)
UACC-62 = assay: NCI-60 SRB screen; type: cell-based, human; details: Homo sapiens; UACC-62; single dose 10^−5 M; read-out: Growth inhibition (%)
M14 = assay: NCI-60 SRB screen; type: cell-based, human; details: Homo sapiens; M14; single dose 10^−5 M; read-out: Growth inhibition (%)
OVCAR-3 = assay: NCI-60 SRB screen; type: cell-based, human; details: Homo sapiens; OVCAR-3; single dose 10^−5 M; read-out: Growth inhibition (%)
SK-MEL-5 = assay: NCI-60 SRB screen; type: cell-based, human; details: Homo sapiens; SK-MEL-5; single dose 10^−5 M; read-out: Growth inhibition (%)
786-0 = assay: NCI-60 SRB screen; type: cell-based; details: Homo sapiens; 786-0; single dose 10^−5 M; read-out: Growth inhibition (%)
NCI-H23 = assay: NCI-60 SRB screen; type: cell-based, human; details: Homo sapiens; NCI-H23; single dose 10^−5 M; read-out: Growth inhibition (%)
SN12C = assay: NCI-60 SRB screen; type: cell-based, human; details: Homo sapiens, SN12C; SN 12 C; single dose 10^−5 M; read-out: Growth inhibition (%)
LOX IMVI = assay: NCI-60 SRB screen; type: cell-based, human; details: Homo sapiens, single dose 10^−5 M, read-out: Growth inhibition (%)
NCI-H322M = assay: NCI-60 SRB screen; type: cell-based, human; details: Homo sapiens, single dose 10^−5 M, read-out: Growth inhibition (%)
MDA-MB-435 = assay: NCI-60 SRB screen; type: cell-based; details: Homo sapiens, MDA-MB-435, read-out: Growth inhibition (%)
A549/ATCC = assay: NCI-60 SRB screen; type: cell-based, human; details: Homo sapiens, single dose 10^−5 M, read-out: Growth inhibition (%)
HL-60(TB) = assay: NCI-60 SRB screen; type: cell-based, human; details: Homo sapiens; HL-60 (TB); single dose 10^−5 M; read-out: Growth inhibition (%)
SK-OV-3 = assay: NCI-60 SRB screen; type: cell-based, human; details: Homo sapiens; SK-OV-3; single dose 10^−5 M; read-out: Growth inhibition (%)
SK-MEL-2 = assay: NCI-60 SRB screen; type: cell-based, human; details: Homo sapiens; SK-MEL-2; single dose 10^−5 M; read-out: Growth inhibition (%)
CCRF-CEM = assay: NCI-60 SRB screen; type: cell-based; details: Homo sapiens, single dose 10^−5 M, read-out: Growth inhibition (%)
UACC-257 = assay: NCI-60 SRB screen; type: cell-based, human; details: Homo sapiens, UACC-257; UACC-275 (so in the source); single dose 10^−5 M; read-out: Growth inhibition (%)
NCI-H522 = assay: NCI-60 SRB screen; type: cell-based, human; details: Homo sapiens; NCI-H522; single dose 10^−5 M; read-out: Growth inhibition (%)
RXF 393 = assay: NCI-60 SRB screen; type: cell-based, human; details: Homo sapiens; RXF 393; single dose 10^−5 M; read-out: Growth inhibition (%)
EKVX = assay: NCI-60 SRB screen; type: cell-based, human; details: Homo sapiens, single dose 10^−5 M, read-out: Growth inhibition (%)
SF-268 = assay: NCI-60 SRB screen; type: cell-based, human; details: Homo sapiens; SF-268; single dose 10^−5 M; read-out: Growth inhibition (%)
OVCAR-8 = assay: NCI-60 SRB screen; type: cell-based, human; details: Homo sapiens; OVCAR-8; single dose 10^−5 M; read-out: Growth inhibition (%)
OVCAR-4 = assay: NCI-60 SRB screen; type: cell-based, human; details: Homo sapiens; OVCAR-4; single dose 10^−5 M; read-out: Growth inhibition (%)
TK-10 = assay: NCI-60 SRB screen; type: cell-based, human; details: Homo sapiens; TK-10; single dose 10^−5 M; read-out: Growth inhibition (%)
HCC-2998 = assay: NCI-60 SRB screen; type: cell-based, human; details: Homo sapiens; HCC-2998; single dose 10^−5 M; read-out: Growth inhibition (%)
SR = assay: NCI-60 SRB screen; type: cell-based; details: Homo sapiens, single dose 10^−5 M, read-out: Growth inhibition (%)
SK-MEL-28 = assay: NCI-60 SRB screen; type: cell-based; details: Homo sapiens; SK-MEL-28; single dose 10^−5 M; read-out: Growth inhibition (%)
K-562 = assay: NCI-60 SRB screen; type: cell-based, human; details: Homo sapiens, K562; K-562; single dose 10^−5 M; read-out: Growth inhibition (%)
KM12 = assay: NCI-60 SRB screen; type: cell-based, human; details: Homo sapiens; KM12; single dose 10^−5 M; read-out: Growth inhibition (%)
NCI-H226 = assay: NCI-60 SRB screen; type: cell-based, human; details: Homo sapiens; NCI-H226; single dose 10^−5 M; read-out: Growth inhibition (%)
HT-29 = assay: NCI-60 SRB screen; type: cell-based; details: Homo sapiens; HT-29; single dose 10^−5 M; read-out: Growth inhibition (%)
NCI-H460 = assay: NCI-60 SRB screen; type: cell-based, human; details: Homo sapiens; NCI-H460; single dose 10^−5 M; read-out: Growth inhibition (%)
IGROV1 = assay: NCI-60 SRB screen; type: cell-based, human; details: Homo sapiens, IGROV-1; IGROV1; single dose 10^−5 M; read-out: Growth inhibition (%)
HCT-15 = assay: NCI-60 SRB screen; type: cell-based, human; details: Homo sapiens; HCT-15; single dose 10^−5 M; read-out: Growth inhibition (%)
MALME-3M = assay: NCI-60 SRB screen; type: cell-based, human; details: Homo sapiens, single dose 10^−5 M, read-out: Growth inhibition (%)
NCI/ADR-RES = assay: NCI-60 SRB screen; type: cell-based, human; details: Homo sapiens, single dose 10^−5 M, read-out: Growth inhibition (%)
MOLT-4 = assay: NCI-60 SRB screen; type: cell-based; details: Homo sapiens; MOLT-4; single dose 10^−5 M; read-out: Growth inhibition (%)
UO-31 = assay: NCI-60 SRB screen; type: cell-based, human; details: Homo sapiens; UO-31; single dose 10^−5 M; read-out: Growth inhibition (%)
SW-620 = assay: NCI-60 SRB screen; type: cell-based; details: Homo sapiens; SW-620; single dose 10^−5 M; read-out: Growth inhibition (%)
ACHN = assay: NCI-60 SRB screen; type: cell-based; details: Homo sapiens, single dose 10^−5 M, read-out: Growth inhibition (%)
HCT-116 = assay: NCI-60 SRB screen; type: cell-based, human; details: Homo sapiens; HCT-116; single dose 10^−5 M; read-out: Growth inhibition (%)

COc1ccc(C2NC(=O)C(C#N)c3c2sc2c(F)cccc32)c(OC)c1 (stereo not shown) [Compound 5a, 1-(2,4-Dimethoxyphenyl)-4-cyano-8-fluoro-1,2-dihydro[1]benzothieno [2,3-c]pyridin-3(4H)-one]
inhibition at 10 µM (SF-295): 72.4% | inhibition at 10 µM (HOP-62): 42.6% | inhibition at 10 µM (COLO 205): 11.7% | inhibition at 10 µM [1]: 52.5% | inhibition at 10 µM (UACC-62): 58.8% | inhibition at 10 µM (M14): 62.2% | inhibition at 10 µM (OVCAR-3): 86.3% | inhibition at 10 µM (SK-MEL-5): 18.2% | inhibition at 10 µM (786-0): 31.6% | inhibition at 10 µM (NCI-H23): 35.2% | inhibition at 10 µM (SN12C): 26.3% | inhibition at 10 µM (LOX IMVI): 60.3% | inhibition at 10 µM (NCI-H322M): 9.6% | inhibition at 10 µM (MDA-MB-435): -129% | inhibition at 10 µM (A549/ATCC): 41.5% | inhibition at 10 µM (HL-60(TB)): 43% | inhibition at 10 µM (SK-OV-3): 49.3% | inhibition at 10 µM (SK-MEL-2): 35.9% | inhibition at 10 µM (CCRF-CEM): 28.1% | inhibition at 10 µM (UACC-257): 31.8% | inhibition at 10 µM (NCI-H522): 92% | inhibition at 10 µM (RXF 393): 90.3% | inhibition at 10 µM (EKVX): 20.7% | inhibition at 10 µM (SF-268): 48.9% | inhibition at 10 µM (OVCAR-8): 38.7% | inhibition at 10 µM (OVCAR-4): 46.3% | inhibition at 10 µM (TK-10): 1.9% | inhibition at 10 µM (HCC-2998): 11.7% | inhibition at 10 µM (SR): 86.1% | inhibition at 10 µM (SK-MEL-28): 45.9% | inhibition at 10 µM (K-562): 76.1% | inhibition at 10 µM (KM12): 69% | inhibition at 10 µM (NCI-H226): 37.8% | inhibition at 10 µM (HT-29): 36% | inhibition at 10 µM (NCI-H460): 68.2% | inhibition at 10 µM (IGROV1): 48.2% | inhibition at 10 µM (HCT-15): 63.6% | inhibition at 10 µM (MALME-3M): 60.3% | inhibition at 10 µM (NCI/ADR-RES): 84.4% | inhibition at 10 µM (MOLT-4): 28.6% | inhibition at 10 µM (UO-31): 66% | inhibition at 10 µM (SW-620): 68.7% | inhibition at 10 µM (ACHN): 62.5% | inhibition at 10 µM (HCT-116): 77.2%

COc1ccc(C2NC(=O)C(C#N)c3c2sc2c(F)cccc32)cc1 (stereo not shown) [Compound 5b, 4-Cyano-8-fluoro-1-(4-methoxyphenyl)-1,2-dihydro[1]benzothieno[2,3-c] pyridin-3(4H)-one]
inhibition at 10 µM (SF-295): 69.5% | inhibition at 10 µM (HOP-62): 54.6% | inhibition at 10 µM (COLO 205): 8.44% | inhibition at 10 µM [1]: 52.5% | inhibition at 10 µM (UACC-62): 64.7% | inhibition at 10 µM (M14): 66.7% | inhibition at 10 µM (OVCAR-3): 99.4% | inhibition at 10 µM (SK-MEL-5): 39.5% | inhibition at 10 µM (786-0): 29.1% | inhibition at 10 µM (NCI-H23): 24.8% | inhibition at 10 µM (SN12C): 38.6% | inhibition at 10 µM (LOX IMVI): 54.4% | inhibition at 10 µM (NCI-H322M): 34.8% | inhibition at 10 µM (MDA-MB-435): 109% | inhibition at 10 µM (A549/ATCC): 58.5% | inhibition at 10 µM (HL-60(TB)): 89.5% | inhibition at 10 µM (SK-OV-3): 36.9% | inhibition at 10 µM (SK-MEL-2): 40% | inhibition at 10 µM (CCRF-CEM): 66% | inhibition at 10 µM (UACC-257): 36.1% | inhibition at 10 µM (NCI-H522): 79.9% | inhibition at 10 µM (RXF 393): 44.1% | inhibition at 10 µM (EKVX): 38.3% | inhibition at 10 µM (SF-268): 39% | inhibition at 10 µM (OVCAR-8): 30.2% | inhibition at 10 µM (OVCAR-4): 28.4% | inhibition at 10 µM (TK-10): -12.7% | inhibition at 10 µM (HCC-2998): 8.46% | inhibition at 10 µM (SR): 77.9% | inhibition at 10 µM (SK-MEL-28): 47.4% | inhibition at 10 µM (K-562): 86% | inhibition at 10 µM (KM12): 60% | inhibition at 10 µM (NCI-H226): 39.8% | inhibition at 10 µM (HT-29): 49.5% | inhibition at 10 µM (NCI-H460): 71.4% | inhibition at 10 µM (IGROV1): 58.9% | inhibition at 10 µM (HCT-15): 66.5% | inhibition at 10 µM (MALME-3M): 52.9% | inhibition at 10 µM (NCI/ADR-RES): 70.7% | inhibition at 10 µM (MOLT-4): 50.9% | inhibition at 10 µM (UO-31): 64.2% | inhibition at 10 µM (SW-620): 75.7% | inhibition at 10 µM (ACHN): 55.5% | inhibition at 10 µM (HCT-116): 62.5%

From paper PMC8330742, “New benzothieno[2,3-c]pyridines as non-steroidal CYP17 inhibitors: design, synthesis, anticancer screening, apoptosis induction, and in silico ADME profile studies” (Journal of Enzyme Inhibition and Medicinal Chemistry, 2021)
